Source: patent EP4818168A1, “FUSED RING COMPOUND, PHARMACEUTICAL COMPOSITION THEREOF AND USE THEREOF” (priority 2023, dated 2025)

These compounds were tested against T1, AURKA (Homo sapiens, UniProt O14965) (assay: not given). Details: 100 nM compound, Jurkat cells, 24 h, Table 1.
T1 construct: endogenous in cells; host or cells: Jurkat cells
T1 sequence (O14965 1-403): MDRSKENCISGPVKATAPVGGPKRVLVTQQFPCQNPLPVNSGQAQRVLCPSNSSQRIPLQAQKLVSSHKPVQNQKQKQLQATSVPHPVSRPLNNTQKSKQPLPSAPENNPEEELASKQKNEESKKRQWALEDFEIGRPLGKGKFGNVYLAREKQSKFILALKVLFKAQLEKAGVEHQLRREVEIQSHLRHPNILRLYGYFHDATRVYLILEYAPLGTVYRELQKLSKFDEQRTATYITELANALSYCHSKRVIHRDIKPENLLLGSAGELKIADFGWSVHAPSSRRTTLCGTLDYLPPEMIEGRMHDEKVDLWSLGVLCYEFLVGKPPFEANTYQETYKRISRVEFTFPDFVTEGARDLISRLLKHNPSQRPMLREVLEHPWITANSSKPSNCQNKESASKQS
Type: cell-based
Procedure, shortened: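 Jurkat cells seeded at 1×10^6 cells/500 µL and treated with compound; lysates run on SDS-PAGE, blotted to nitrocellulose and probed overnight at 4°C for AURKA. Chemiluminescent or fluorescent band intensity fitted to a curve to give DC50 for protein degradation.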

SMILES	Percentage of AURKA Degradation Induced by 100 nM Compound in Jurkat Cells
O=C1CCN(c2cnc(N3CCN(CCNC(=O)c4ccc(Nc5ncc6c(n5)-c5ccc(Cl)cc5C(c5c(F)cccc5F)=NC6)cc4)CC3)s2)C(=O)N1 [Compound A25]	+++ (Degradation > 70%)
COc1cc(Nc2ncc3c(n2)-c2ccc(Cl)cc2C(c2c(F)cccc2OC)=NC3)ccc1C(=O)N1CCC2(CCN(c3ccc(N4CCC(=O)NC4=O)cc3)CC2)C1 [Compound A36]	+ (Degradation ≤ 30%)
COc1cc(Nc2ncc3c(n2)-c2ccc(Cl)cc2C(c2c(F)cccc2OC)=NC3)ccc1C(=O)O [alisertib, reference compound]	+ (Degradation ≤ 30%)
O=C1CCN(c2cccc(C#C[C@H]3C[C@H](NC(=O)c4ccc(Nc5ncc6c(n5)-c5ccc(Cl)cc5C(c5c(F)cccc5F)=NC6)cc4)C3)c2)C(=O)N1 [Compound A52]	++ (30% < Degradation ≤ 70%)
COc1cc(Nc2ncc3c(n2)-c2ccc(Cl)cc2C(c2c(F)cccc2OC)=NC3)ccc1C(=O)NCCN1Cc2cc3c(cc2C1)C(=O)N(C1CCC(=O)NC1=O)C3=O (stereo not drawn) [Compound A17]	+ (Degradation ≤ 30%)
O=C1CCN(c2ccc(N3CCC(CNC(=O)c4ccc(Nc5ncc6c(n5)-c5ccc(Cl)cc5C(c5c(F)cccc5F)=NC6)cc4)CC3)cc2)C(=O)N1 [Compound A12]	+ (Degradation ≤ 30%)
COc1cccc(F)c1C1=NCc2cnc(Nc3ccc(C(=O)NC4CN(CC5CN(c6ccc(N7CCC(=O)NC7=O)cc6)C5)C4)cc3)nc2-c2ccc(Cl)cc21 [Compound A71]	+++ (Degradation > 70%)
O=C1CCN(c2cccc(N3CC(N4CC(NC(=O)c5ccc(Nc6ncc7c(n6)-c6ccc(Cl)cc6C(c6c(F)cccc6F)=NC7)cc5)C4)C3)c2)C(=O)N1 [Compound A74]	++ (30% < Degradation ≤ 70%)
COc1cc(Nc2ncc3c(n2)-c2ccc(Cl)cc2C(c2c(F)cccc2OC)=NC3)ccc1C(=O)NCCN1CCC(n2cnc(N3CCC(=O)NC3=O)c2)CC1 [Compound A23]	+ (Degradation ≤ 30%)
COc1cccc(F)c1C1=NCc2cnc(Nc3ccc(C(=O)NCCN4CCN(c5ccc(N6CCC(=O)NC6=O)cn5)CC45CC5)cc3)nc2-c2ccc(Cl)cc21 [Compound A69]	+++ (Degradation > 70%)
COc1cc(Nc2ncc3c(n2)-c2ccc(Cl)cc2C(c2c(F)cccc2OC)=NC3)ccc1C(=O)NC1CC2(CCN(c3ncc(N4CCC(=O)NC4=O)s3)CC2)C1 [Compound A80]	++ (30% < Degradation ≤ 70%)

Same assay, conditions: 1 µM compound, Jurkat cells, 24 h, Table 1

SMILES	Percentage of AURKA Degradation Induced by 1 µM Compound in Jurkat Cells
O=C1CCN(c2cnc(N3CCN(CCNC(=O)c4ccc(Nc5ncc6c(n5)-c5ccc(Cl)cc5C(c5c(F)cccc5F)=NC6)cc4)CC3)s2)C(=O)N1 [Compound A25]	++ (30% < Degradation ≤ 70%)
COc1cc(Nc2ncc3c(n2)-c2ccc(Cl)cc2C(c2c(F)cccc2OC)=NC3)ccc1C(=O)N1CCC2(CCN(c3ccc(N4CCC(=O)NC4=O)cc3)CC2)C1 [Compound A36]	+ (Degradation ≤ 30%)
COc1cc(Nc2ncc3c(n2)-c2ccc(Cl)cc2C(c2c(F)cccc2OC)=NC3)ccc1C(=O)O [alisertib, reference compound]	+ (Degradation ≤ 30%)
O=C1CCN(c2cccc(C#C[C@H]3C[C@H](NC(=O)c4ccc(Nc5ncc6c(n5)-c5ccc(Cl)cc5C(c5c(F)cccc5F)=NC6)cc4)C3)c2)C(=O)N1 [Compound A52]	++ (30% < Degradation ≤ 70%)
COc1cc(Nc2ncc3c(n2)-c2ccc(Cl)cc2C(c2c(F)cccc2OC)=NC3)ccc1C(=O)NCCN1Cc2cc3c(cc2C1)C(=O)N(C1CCC(=O)NC1=O)C3=O (stereo not drawn) [Compound A17]	+ (Degradation ≤ 30%)
O=C1CCN(c2ccc(N3CCC(CNC(=O)c4ccc(Nc5ncc6c(n5)-c5ccc(Cl)cc5C(c5c(F)cccc5F)=NC6)cc4)CC3)cc2)C(=O)N1 [Compound A12]	+ (Degradation ≤ 30%)
COc1cccc(F)c1C1=NCc2cnc(Nc3ccc(C(=O)NC4CN(CC5CN(c6ccc(N7CCC(=O)NC7=O)cc6)C5)C4)cc3)nc2-c2ccc(Cl)cc21 [Compound A71]	+++ (Degradation > 70%)
O=C1CCN(c2cccc(N3CC(N4CC(NC(=O)c5ccc(Nc6ncc7c(n6)-c6ccc(Cl)cc6C(c6c(F)cccc6F)=NC7)cc5)C4)C3)c2)C(=O)N1 [Compound A74]	++ (30% < Degradation ≤ 70%)
COc1cc(Nc2ncc3c(n2)-c2ccc(Cl)cc2C(c2c(F)cccc2OC)=NC3)ccc1C(=O)NCCN1CCC(n2cnc(N3CCC(=O)NC3=O)c2)CC1 [Compound A23]	+ (Degradation ≤ 30%)
COc1cccc(F)c1C1=NCc2cnc(Nc3ccc(C(=O)NCCN4CCN(c5ccc(N6CCC(=O)NC6=O)cn5)CC45CC5)cc3)nc2-c2ccc(Cl)cc21 [Compound A69]	+++ (Degradation > 70%)
COc1cc(Nc2ncc3c(n2)-c2ccc(Cl)cc2C(c2c(F)cccc2OC)=NC3)ccc1C(=O)NC1CC2(CCN(c3ncc(N4CCC(=O)NC4=O)s3)CC2)C1 [Compound A80]	+++ (Degradation > 70%)

The compounds below were run on HCC1806 cells (assay: CTG assay of compound inhibition on cell viability (HCC1806 cells)). Details: Homo sapiens, HCC1806, 144 h, read-out: IC50 in HCC1806 Cells.
Type: cell-based
Protocol: CellTiter-Glo (CTG) is a rapid cell viability test method based on ATP detection. […] Adenosine triphosphate (ATP) participates in various enzymatic reactions in organisms and is an indicator of living cell metabolism. Its content directly reflects the number of living cells and cell status. During the experiment, equal volume of CTG reagent is added to the cultured cells to measure the luminescence value. The chemiluminescent signal value is proportional to the amount of ATP, thus reflecting the number of viable cells. Therefore, cell viability can be obtained by detecting the ATP content. Compounds that affect cell viability will inhibit cell viability in a concentration-dependent manner, allowing a curve to be fitted to obtain the IC50 value.
The experimental procedure is as follows: • 11. Place the cell suspension in a 15 mL centrifuge tube, centrifuge at 1000 rpm for 5 min at room temperature, discard the supernatant, and collect the cell pellet. • 12. Resuspend the cell pellet with preheated complete cell culture medium (RPMI1640+10%FBS+1%PS), and use a Countess® automated cell counter to detect cell viability and density. The cell viability must be above 90%. • 13. […] Transfer the compound solution to a 96-well plate seeded with cells (final concentration of DMSO 0.1%), and place in a cell incubator at 37°C, 5% CO2 for 6 days. • 15. […] Protect from light during the whole process. Perform optical signal readings using a SpectraMax i3x reader. • 16. Data analysis: Remaining activity (%) = 100% * (1 - ((LumDMSO - Lummedium) - Lumsample) / (LumDMSO - LumPBS/medium)). Use GraphPad Prism 9.0 software to draw an S-shaped dose-survival rate curve and calculate the IC50 value using a nonlinear regression model.

SMILES	IC50 [nM]
O=C1CCN(c2cnc(N3CCN(CCNC(=O)c4ccc(Nc5ncc6c(n5)-c5ccc(Cl)cc5C(c5c(F)cccc5F)=NC6)cc4)CC3)s2)C(=O)N1 [Compound A25]	< 1000
COc1cc(Nc2ncc3c(n2)-c2ccc(Cl)cc2C(c2c(F)cccc2OC)=NC3)ccc1C(=O)N1CCC2(CCN(c3ccc(N4CCC(=O)NC4=O)cc3)CC2)C1 [Compound A36]	< 1000
COc1cc(Nc2ncc3c(n2)-c2ccc(Cl)cc2C(c2c(F)cccc2OC)=NC3)ccc1C(=O)O [alisertib, reference compound]	< 1000
O=C1CCN(c2cccc(C#C[C@H]3C[C@H](NC(=O)c4ccc(Nc5ncc6c(n5)-c5ccc(Cl)cc5C(c5c(F)cccc5F)=NC6)cc4)C3)c2)C(=O)N1 [Compound A52]	< 1000
COc1cc(Nc2ncc3c(n2)-c2ccc(Cl)cc2C(c2c(F)cccc2OC)=NC3)ccc1C(=O)NCCN1Cc2cc3c(cc2C1)C(=O)N(C1CCC(=O)NC1=O)C3=O (stereo not drawn) [Compound A17]	< 1000
O=C1CCN(c2ccc(N3CCC(CNC(=O)c4ccc(Nc5ncc6c(n5)-c5ccc(Cl)cc5C(c5c(F)cccc5F)=NC6)cc4)CC3)cc2)C(=O)N1 [Compound A12]	< 1000
COc1cccc(F)c1C1=NCc2cnc(Nc3ccc(C(=O)NC4CN(CC5CN(c6ccc(N7CCC(=O)NC7=O)cc6)C5)C4)cc3)nc2-c2ccc(Cl)cc21 [Compound A71]	< 1000
O=C1CCN(c2cccc(N3CC(N4CC(NC(=O)c5ccc(Nc6ncc7c(n6)-c6ccc(Cl)cc6C(c6c(F)cccc6F)=NC7)cc5)C4)C3)c2)C(=O)N1 [Compound A74]	< 1000
COc1cc(Nc2ncc3c(n2)-c2ccc(Cl)cc2C(c2c(F)cccc2OC)=NC3)ccc1C(=O)NCCN1CCC(n2cnc(N3CCC(=O)NC3=O)c2)CC1 [Compound A23]	< 1000
COc1cccc(F)c1C1=NCc2cnc(Nc3ccc(C(=O)NCCN4CCN(c5ccc(N6CCC(=O)NC6=O)cn5)CC45CC5)cc3)nc2-c2ccc(Cl)cc21 [Compound A69]	< 1000
COc1cc(Nc2ncc3c(n2)-c2ccc(Cl)cc2C(c2c(F)cccc2OC)=NC3)ccc1C(=O)NC1CC2(CCN(c3ncc(N4CCC(=O)NC4=O)s3)CC2)C1 [Compound A80]	< 1000
